Measured values: patent publication US20130137757A1 (priority 2010, published 2013)

Assays:
[1] = test system: influenza viruses A/PR/8/34 (H1N1 type) strain; assay: hemagglutination inhibition test; format: cell-based, influenza virus; conditions: guinea pig red blood cell suspensions, A/PR/8/34 (H1N1) strain, in PBS
[2] = test system: influenza viruses A/Memphis/1/71 (H3N2 type) strain; assay: hemagglutination inhibition test; format: cell-based, influenza virus; conditions: guinea pig red blood cell suspensions, A/Memphis/1/71 (H3N2) strain, in PBS

## deoxyribonucleic acid [DNA]
[1]
  hemagglutination (visual and microscopic observation): strong hemagglutination was observed
[2]
  hemagglutination (visual and microscopic observation): strong hemagglutination was observed
